According to patent EP2646421B1, “7-NITRO-5-PHENYL-1-(PYRROLIDIN-1-YLMETHYL)-1H-BENZO[E][1,4]DIAZEPIN-2(3H)-ONE AND OTHER BENZODIAZEPINE DERIVATIVES” (Pignataro, Giuseppe, priority 2010, dated 2012):
pEC50: −log10 of the molar value.

Legend:
NCX2 = molecular target: T1, NCX2 (Rattus norvegicus, UniProt P48768); test: 45Ca2+ radiotracer fluxes (efflux/influx) in BHK-NCX2 cells; format: cell-based
T1 construct: expressed in transfected cells
Procedure: The activity of NCX was established by means of three different subclones of baby hamsted kidney (BHK) cells that were stably transfected with one of each NCX isoforms, named BHK-NCX1, BHK-NCX2 and BHK-NCX3. These cell lines were grown on plastic dishes in a mix of DMEM and Ham's F12 media (1:1) (Gibco, Invitrogen, MI, Italy) supplemented with 5% fetal bovine serum, 100 U/ml penicillin, and 100 µg/ml streptomycin (Sigma, St. Louis, Missouri, USA). Cells were cultured in a humidified 5% CO2 atmosphere and at the temperature of 37°C.
The activity of the Na^+/Ca^2+ exchanger was measured by means of ^45Ca^2+ radiotracer variations in the cytoplasm of cells exposed to a protocol stimulating the forward or the reverse mode of the antiporter. The BHK cells expressing each mutated or non-mutated NCX isoform were cultured in 12-well dishes and incubated in 145 mM NaCl for 10 minutes and then in a medium containing only 145 mM N-Methyl D-glucamine (NMDG) and 10 µM of ^45Ca^2+. This rapid substitution of the medium from a high level of Na^+ to another one without Na^+ allow the ^45Ca^2+ influx (reverse mode). Before the medium substitution cells was incubated with 1 mM ouabain, a Na^+/K^+ pump inhibitor, and 10 µM monensin, a ionophore for extracellular Na^+. After 30 seconds incubation, cells were washed with an ice-cold solution containing 2 mM La^3+ to stop ^45Ca^2+ uptake. The medium was removed and cells were subsequently lysed with 0.1 N NaOH and aliquots were taken to determine radioactivity and protein content.
In order to measure NCX activity in the forward mode, cells were firstly loaded with ^45Ca^2+ and subsequently exposed to a chemical protocol to stimulate the efflux of the radiotracer in the extracellular medium. In particular, cells were loaded with ^45Ca^2+ by using a solution containing 1 µM ionomycin, 145 mM Na^+ and ^45Ca^2+. Next, cells were exposed to a Ca^2+-free solution containing 2 mM EGTA. One µM thapsigargin, a Ca^2+-ATPase inhibitor, was present in both solutions in order to prevent ^45Ca^2+ influx in intracellular organelles. After 60 second, cells were lysed with […] NaOH and aliquots were taken to determine cytoplasmatic radioactivity.
Cells were incubated for 30 minutes with different neurounina-1 concentrations.

[1] = test system: ischemic volume after tMCAO; test: Transient middle cerebral artery occlusion (tMCAO) cerebral ischemia model; format: in vivo, mice
Description: For experimental stroke male wild-type C57BL of 2 months have been used. All mice were anesthetized with a gas containing 70 % N2O, 28% O2 e 2% sevoflurane).
Usually, after anesthesia an incision on the ventral neck is made and, under an operating stereo-microscope and with the help of microsurgery twizzers, the muscle is diverted until the common carotid artery (CCA). Then, through smoothly diversion, the CCA is isolated from the vague nerve and the jugulars vein. Analogously, the external carotid artery (ECA) and the internal carotid artery (ICA) are isolated as well.After the isolation of these vessels and the positioning of vascular microclips, a nylon filament (5-0, Ethilon, 11 mm length) is inserted into the internal carotid artery (ICA), at the level of bifurcation with the common carotid artery. The filament is pushed in cranial direction until is reached the bifurcation of the middle cerebral artery (MCA), whose flux is interrupted. After the insertion of the filament the wound is closed with a temporary suture and the mouse is let to awake. After 60 minutes the animal is re-anesthesized and the ischemia is interrupted through the filament rimotion from the vessel. The reduction in cerebral blood flow has been evaluated by means of a cerebral laser-Doppler system (Periflux, Sweden with software Perimed 1.30) that uses a probe fixed on the skull. The body temperature has been maintained constant by means of a homoeothermic blanket connected to a rectal probe. Few minutes after the end of the surgical procedure the mouse awakes and, on the nasis of the pain degree noticed, is decided for the administration of analgesic drugs. Neurounina-1 administration has been done intraperitoneally at different dosages, immediately before, 3 hours or 5 hours the ischemia onset. 24 hours after the surgical procedure, the animal is killed through cervical dislocation and the brain is removed from the skull and analyzed for the determination of the ischemic damage extension. In particular, by means of a vibratome, serial coronal brain sections of […] are obtained. These brain sections are treated with 2,3,5-triphenyl tetrazolium chloride (TTC), an organic compound that has the peculiarity of being oxidized and precipitated as formazan salt only from vital tissue. By contrast, the ischemic tissue, being not able to generate this reaction, remains white. […] The software used (Image Pro-plus 4.1) allows, then, to obtain the brain infarct volume from the value of the infarct areas obtained in close brain slices.Data obtained in this manner are then elaborated to obtain a percentage evaluation of the ischemic damage induced compared to the brain hemisphere […] to the ischemic lesion.

T1 sequence (P48768 21-921): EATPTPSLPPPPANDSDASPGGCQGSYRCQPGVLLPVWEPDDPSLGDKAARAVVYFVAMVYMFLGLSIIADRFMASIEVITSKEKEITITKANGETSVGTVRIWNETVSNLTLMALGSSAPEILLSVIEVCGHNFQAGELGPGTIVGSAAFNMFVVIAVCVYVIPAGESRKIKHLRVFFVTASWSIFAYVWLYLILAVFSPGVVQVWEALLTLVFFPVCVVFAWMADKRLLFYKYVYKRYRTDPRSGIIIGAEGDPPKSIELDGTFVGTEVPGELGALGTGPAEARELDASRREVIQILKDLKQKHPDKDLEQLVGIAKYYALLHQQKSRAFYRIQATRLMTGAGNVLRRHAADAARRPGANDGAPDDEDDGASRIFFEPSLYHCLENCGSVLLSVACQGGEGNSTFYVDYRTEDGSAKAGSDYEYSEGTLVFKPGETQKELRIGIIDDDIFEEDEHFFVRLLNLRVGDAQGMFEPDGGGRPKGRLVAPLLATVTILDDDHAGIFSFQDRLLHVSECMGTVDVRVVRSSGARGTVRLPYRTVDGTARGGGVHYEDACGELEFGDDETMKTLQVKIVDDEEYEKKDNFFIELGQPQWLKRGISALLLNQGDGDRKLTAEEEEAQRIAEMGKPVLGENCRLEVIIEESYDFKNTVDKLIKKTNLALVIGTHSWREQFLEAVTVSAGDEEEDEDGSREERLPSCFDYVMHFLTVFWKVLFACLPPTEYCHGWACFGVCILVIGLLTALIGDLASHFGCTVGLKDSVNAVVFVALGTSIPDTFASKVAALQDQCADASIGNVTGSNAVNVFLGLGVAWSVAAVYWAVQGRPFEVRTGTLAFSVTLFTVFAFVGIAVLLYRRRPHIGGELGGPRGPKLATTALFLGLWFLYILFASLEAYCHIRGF

Which “increase of forward mode of NCX2 activity” value (NCX2; 45Ca2+ radiotracer, forward mode) does the source give for `O=C1CN=C(c2ccccc2)c2cc([N+](=O)[O-])ccc2N1CN1CCCC1` [neurounina-1, 7-nitro-5-phenyl-1-(pyrrolidin-1-ylmethyl)-1H-benzo[e][1,4]diazepin-2(3H)-one] here?
The value was 30%.

What about the “increase of reverse mode NCX2 activity” value (NCX2; 45Ca2+ radiotracer, reverse mode) of the same compound?
Its value is 40%.

And the pEC50 (NCX2; EC50 NCX2, reverse mode, 45Ca2+ radiotracer, reverse mode)?
Its pEC50 is 8.57.

What about the pEC50 (NCX2; EC50 for NCX2, forward mode, 45Ca2+ radiotracer, forward mode) of the same compound?
The pEC50 was 8.77.

And the pEC50 (NCX2; EC50 su NCX2, from the functional assays (summary))?
The pEC50 was 8.70 to 9.00.

And the NCX2 activity (NCX2; forward and reverse mode, patch clamp, Fura-2 microfluorimetry and 45Ca2+ fluxes (summary))?
Its NCX2 activity is “increases, in a dose-dependent manner”.

What about the ischemic damage ([1]; administered just before tMCAO induction, 3 ng/kg, intraperitoneal) of the same compound?
Its ischemic damage is “significantly reduced ischemic damage”.

And the “minimal dose with neuroprotective effect” value ([1]; five hours from tMCAO, intraperitoneal)?
The value was 0.03 mg/kg.

What about the neuroprotective effect ([1]; intraperitoneally 3 hours after tMCAO, dose-range 3 ng/kg to 30 µg/kg) of the same compound?
The neuroprotective effect was “still present”.

What about the ischemic volume ([1]; mice, intraperitoneal administration, tMCAO) of the same compound?
The ischemic volume was “decreased the ischemic volume”.
